Counter-ions that a name gives are not always drawn. Like-named read-outs stand apart in the source and are kept apart here.
Tests used:
PKC epsilon = target: T1, PKC epsilon (Homo sapiens, UniProt Q02156); assay: Biochemical assay for PKC epsilon (fluorescence polarization, Protein Kinase C Assay Kit, Red); conditions: read-out: IC50 μM PKCε
T1 construct: purchased Invitrogen P2282
T1 sequence (Q02156 1-737): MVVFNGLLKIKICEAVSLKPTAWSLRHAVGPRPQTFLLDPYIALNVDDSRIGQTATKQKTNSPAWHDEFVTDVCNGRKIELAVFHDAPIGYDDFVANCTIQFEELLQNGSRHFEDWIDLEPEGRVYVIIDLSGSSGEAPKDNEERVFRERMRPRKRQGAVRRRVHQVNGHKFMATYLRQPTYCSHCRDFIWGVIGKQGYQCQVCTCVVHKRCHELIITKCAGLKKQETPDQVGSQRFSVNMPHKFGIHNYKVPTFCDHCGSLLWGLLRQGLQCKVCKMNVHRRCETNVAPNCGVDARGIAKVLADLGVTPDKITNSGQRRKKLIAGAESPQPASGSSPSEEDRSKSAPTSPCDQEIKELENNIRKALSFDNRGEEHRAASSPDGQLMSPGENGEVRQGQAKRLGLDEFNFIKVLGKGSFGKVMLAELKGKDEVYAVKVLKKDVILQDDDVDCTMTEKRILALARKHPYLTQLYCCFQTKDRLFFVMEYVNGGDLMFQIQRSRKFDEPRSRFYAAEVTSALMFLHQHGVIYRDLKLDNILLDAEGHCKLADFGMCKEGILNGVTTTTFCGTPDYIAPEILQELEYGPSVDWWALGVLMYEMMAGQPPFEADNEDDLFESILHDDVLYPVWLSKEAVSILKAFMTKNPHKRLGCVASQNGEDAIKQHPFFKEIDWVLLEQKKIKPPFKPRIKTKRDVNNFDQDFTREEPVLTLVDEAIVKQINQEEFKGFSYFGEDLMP
Summary of the method: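 Read-out was fluorescence-polarization competition between phosphorylated substrate and a rhodamine PKC tracer for an anti-phosphoserine antibody, added with EDTA stop after an 80 min room-temperature kinase reaction with ATP and protein substrate (Mg2+/Ca2+ buffer). Enzyme (10 ng/ml final) was preincubated with compound for 30 min.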

human ROCKα/ROCKII mix = target: T2, human ROCKα/ROCKII mix (Homo sapiens, UniProt O75116); assay: Biochemical assay for ROCK (fluorescence polarization, ROCK IMAP Kit)
T2 construct: purchased Upstate Biotechnology 14-451
T2 sequence (O75116 11-552 limits assumed): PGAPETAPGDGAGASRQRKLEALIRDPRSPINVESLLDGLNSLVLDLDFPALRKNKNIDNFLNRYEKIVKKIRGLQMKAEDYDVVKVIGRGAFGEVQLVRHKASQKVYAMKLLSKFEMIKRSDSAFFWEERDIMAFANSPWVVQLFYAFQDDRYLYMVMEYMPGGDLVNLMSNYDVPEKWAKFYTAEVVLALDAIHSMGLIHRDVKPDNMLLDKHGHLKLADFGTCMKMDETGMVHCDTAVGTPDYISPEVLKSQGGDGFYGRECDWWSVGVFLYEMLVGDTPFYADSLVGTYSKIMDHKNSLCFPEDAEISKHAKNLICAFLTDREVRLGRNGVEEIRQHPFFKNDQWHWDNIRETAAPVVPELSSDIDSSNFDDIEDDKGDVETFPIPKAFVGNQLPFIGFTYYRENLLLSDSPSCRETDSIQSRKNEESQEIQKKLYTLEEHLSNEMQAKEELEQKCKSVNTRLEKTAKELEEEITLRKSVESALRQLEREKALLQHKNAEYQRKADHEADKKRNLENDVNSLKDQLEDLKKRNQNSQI

[1] = Table 2, compounds of Formula XIII

SMILES | IC50 (PKC epsilon; [1]) | IC50 (human ROCKα/ROCKII mix; [1]) | IC50 (PKC epsilon) | IC50 (human ROCKα/ROCKII mix)
NC(CNC(=O)C1(c2ccc(Cl)cc2F)CC1)c1ccc(C(=O)Nc2ccncc2)cc1 (centres unmarked) [Compound 389, 4-(1-Amino-2-{[1-(4-chloro-2-fluoro-phenyl)-cyclopropanecarbonyl]-amino}-ethyl)-N-pyridin-4-yl-benzamide] | < 0.05 µM | 0.05 to 0.5 µM |  | 
NC(CNC(=O)C1CCOc2ccccc21)c1ccc(C(=O)Nc2ccncc2)cc1 (centres unmarked) [Compound 390, Chroman-4-carboxylic acid {2-amino-2-[4-(pyridin-4-ylcarbamoyl)-phenyl]-ethyl}-amide] | 0.05 to 0.5 µM | 0.05 to 0.5 µM |  | 
NC(CNC(=O)C1CCSc2ccccc21)c1ccc(C(=O)Nc2ccncc2)cc1 (centres unmarked) [Compound 391, Thiochroman-4-carboxylic acid {2-amino-2-[4-(pyridin-4-ylcarbamoyl)-phenyl]-ethyl}-amide] | 0.05 to 0.5 µM | 0.05 to 0.5 µM |  | 
NC(CNC(=O)C1CCOc2ccc(F)cc21)c1ccc(C(=O)Nc2ccncc2)cc1 (centres unmarked) [Compound 393, 6-Fluoro-chroman-4-carboxylic acid {2-amino-2-[4-(pyridin-4-ylcarbamoyl)-phenyl]-ethyl}-amide] | 0.05 to 0.5 µM | 0.05 to 0.5 µM |  | 
COc1ccccc1CC(=O)N(C)CC(N)c1ccc(C(=O)Nc2ccncc2)cc1 (centres unmarked) [Compound 425, 4-(1-Amino-2-{[2-(2-methoxy-phenyl)-acetyl]-methyl-amino}-ethyl)-N-pyridin-4-yl-benzamide] |  |  | 5 to 50 µM | 0.5 to 5 µM
COc1cccc(CC(=O)N(C)CC(N)c2ccc(C(=O)Nc3ccncc3)cc2)c1 (centres unmarked) [Compound 426, 4-(1-Amino-2-{[2-(3-methoxy-phenyl)-acetyl}-methyl-amino}-ethyl)-N-pyridin-4-yl-benzamide] |  |  | 5 to 50 µM | 0.05 to 0.5 µM
COc1ccc(CC(=O)N(C)CC(N)c2ccc(C(=O)Nc3ccncc3)cc2)cc1 (centres unmarked) [Compound 427, 4-(1-Amino-2-{[2-(4-methoxy-phenyl)-acetyl]-methyl-amino}-ethyl)-N-pyridin-4-yl-benzamide] |  |  | 5 to 50 µM | 0.05 to 0.5 µM
COc1ccc(C2(C(=O)N(C)CC(N)c3ccc(C(=O)Nc4ccncc4)cc3)CC2)cc1 (centres unmarked) [Compound 428, 4-(1-Amino-2-{[1-(4-methoxy-phenyl)-cyclopropanecarbonyl]-methyl-amino}-ethyl)-N-pyridin-4-yl-benzamide] |  |  | 5 to 50 µM | 0.5 to 5 µM
COc1ccc(CC(=O)N(C)CC(N)c2ccc(C(=O)Nc3ccncc3)cc2)c(OC)c1 (centres unmarked) [Compound 430, 4-(1-Amino-2-{[2-(2,4-dimethoxy-phenyl)-acetyl]-methyl-amino}-ethyl)-N-pyridin-4-yl-benzamide] |  |  | 5 to 50 µM | 0.05 to 0.5 µM
CN(CC(N)c1ccc(C(=O)Nc2ccncc2)cc1)C(=O)Cc1cccc(F)c1F (centres unmarked) [Compound 477, 4-(1-Amino-2-{[2-(2,3-difluoro-phenyl)-acetyl]-methyl-amino}-ethyl)-N-pyridin-4-yl-benzamide] |  |  | 5 to 50 µM | 0.5 to 5 µM
CN(CC(N)c1ccc(C(=O)Nc2ccncc2)cc1)C(=O)Cc1cc(F)ccc1F (centres unmarked) [Compound 478, 4-(1-Amino-2-{[2-(2,5-difluoro-phenyl)-acetyl]-methyl-amino}-ethyl)-N-pyridin-4-yl-benzamide] |  |  | 5 to 50 µM | 0.5 to 5 µM
CN(CC(N)c1ccc(C(=O)Nc2ccncc2)cc1)C(=O)Cc1ccc(F)cc1F (centres unmarked) [Compound 479, 4-(1-Amino-2-{[2-(2,4-difluoro-phenyl)-acetyl]-methyl-amino}-ethyl)-N-pyridin-4-yl-benzamide] |  |  | 5 to 50 µM | 0.5 to 5 µM
CN(CC(N)c1ccc(C(=O)Nc2ccncc2)cc1)C(=O)C1(c2ccc(F)cc2F)CC1 (centres unmarked) [Compound 481, 4-(1-Amino-2-{[1-(2,4-difluoro-phenyl)-cyclopropanecarbonyl]-methyl-amino}-ethyl)-N-pyridin-4-yl-benzamide] |  |  | 5 to 50 µM | 0.5 to 5 µM

Results, then the molecule that gave them:

IC50 (PKC epsilon; [1]) | IC50 (human ROCKα/ROCKII mix; [1]) | IC50 (PKC epsilon) | IC50 (human ROCKα/ROCKII mix) | SMILES
 |  | < 0.05 µM | 0.05 to 0.5 µM | N[C@H](CNC(=O)C1(c2ccc(Cl)cc2)CC1)c1ccc(C(=O)Nc2ccncc2)cc1 [Compound 397, 4-((S)-1-Amino-2-{[1-(4-chloro-phenyl)-cyclopropanecarbonyl]-amino}-ethyl)-N-pyridin-4-yl-benzamide dihydrochloric acid salt]
 |  | 0.5 to 5 µM | 0.5 to 5 µM | N[C@@H](CNC(=O)C1(c2ccc(Cl)cc2)CC1)c1ccc(C(=O)Nc2ccncc2)cc1 [Compound 398, 4-((R)-1-Amino-2-{[1-(4-chloro-phenyl)-cyclopropanecarbonyl]-amino}-ethyl)-N-pyridin-4-yl-benzamide dihydrochloric acid salt]
 |  | 0.5 to 5 µM | 0.5 to 5 µM | CC(C)(C(=O)NC[C@H](N)c1ccc(C(=O)Nc2ccncc2)cc1)c1ccc(Cl)cc1 [Compound 400, 4-{(R)-1-Amino-2-[2-(4-chloro-phenyl)-2-methyl-propionylamino]-ethyl}-N-pyridin-4-yl-benzamide]
 |  | < 0.05 µM | 0.05 to 0.5 µM | N[C@H](CC(=O)NCc1ccc(F)cc1)c1ccc(C(=O)Nc2ccncc2)cc1 [Compound 401, 4-[(R)-1-Amino-2-(4-fluoro-benzylcarbamoyl)-ethyl]-N-pyridin-4-yl-benzamide dihydrochloric acid salt]
 |  | 0.05 to 0.5 µM | 0.05 to 0.5 µM | N[C@@H](CC(=O)NCc1ccc(F)cc1)c1ccc(C(=O)Nc2ccncc2)cc1 [Compound 402, 4-[(S)-1-Amino-2-(4-fluoro-benzylcarbamoyl)-ethyl]-N-pyridin-4-yl-benzamide dihydrochloric acid salt]
 |  | < 0.05 µM | < 0.05 µM | N[C@H](CC(=O)N[C@@H]1COc2ccccc21)c1ccc(C(=O)Nc2ccncc2)cc1 [Compound 405, 4-{(R)-1-Amino-2-[(S)-(2,3-dihydro-benzofuran-3-yl)carbamoyl]-ethyl}-N-pyridin-4-yl-benzamide]
 |  | 0.05 to 0.5 µM | 0.05 to 0.5 µM | N[C@H](CC(=O)N[C@H]1COc2ccccc21)c1ccc(C(=O)Nc2ccncc2)cc1 [Compound 406, 4-{(R)-1-Amino-2-[(R)-(2,3-dihydro-benzofuran-3-yl)carbamoyl]-ethyl}-N-pyridin-4-yl-benzamide]
 |  | < 0.05 µM | 0.05 to 0.5 µM | N[C@H](CNC(=O)C1(c2ccc(F)cc2)CCCC1)c1ccc(C(=O)Nc2ccncc2)cc1 [Compound 417, 4-((S)-1-Amino-2-{[1-(4-fluoro-phenyl)-cyclopentanecarbonyl]-amino}-ethyl)-N-pyridin-4-yl-benzamide dihydrochloric acid salt]
 |  | 0.05 to 0.5 µM | 0.5 to 5 µM | N[C@@H](CNC(=O)C1(c2ccc(F)cc2)CCCC1)c1ccc(C(=O)Nc2ccncc2)cc1 [Compound 418, 4-((R)-1-Amino-2-{[1-(4-fluoro-phenyl)-cyclopentanecarbonyl]-amino}-ethyl)-N-pyridin-4-yl-benzamide dihydrochloric acid salt]
 |  | < 0.05 µM | 0.05 to 0.5 µM | CC(C)(C(=S)NCC(N)c1ccc(C(=O)Nc2ccncc2)cc1)c1ccc(F)cc1 (centres unmarked) [Compound 419, 4-{1-Amino-2-[2-(4-fluoro-phenyl)-2-methyl-thiopropionylamino]-ethyl}-N pyridin-4-yl-benzamide dihydrochloric acid salt]
 |  | 5 to 50 µM | 0.5 to 5 µM | Cc1ccccc1CC(=O)N(C)CC(N)c1ccc(C(=O)Nc2ccncc2)cc1 (centres unmarked) [Compound 422, 4-{1-Amino-2-[methyl-(2-o-tolyl-acetyl)-amino]-ethyl}-N-pyridin-4-yl-benzamide]
 |  | 5 to 50 µM | 0.5 to 5 µM | Cc1cccc(CC(=O)N(C)CC(N)c2ccc(C(=O)Nc3ccncc3)cc2)c1 (centres unmarked) [Compound 423, 4-{1-Amino-2-[methyl-(2-m-tolyl-acetyl)-amino]-ethyl}-N-pyridin-4-yl-benzamide]
 |  | 5 to 50 µM | 0.5 to 5 µM | Cc1ccc(CC(=O)N(C)CC(N)c2ccc(C(=O)Nc3ccncc3)cc2)cc1 (centres unmarked) [Compound 424, 4-{1-Amino-2-[methyl-(2-p-tolyl-acetyl)-amino]-ethyl}-N-pyridin-4-yl-benzamide]
 |  | 0.5 to 5 µM | 0.5 to 5 µM | CN(CC(N)c1ccc(C(=O)Nc2ccncc2)cc1)C(=O)C1(c2ccc(F)cc2)CCC1 (centres unmarked) [Compound 474, 4-(1-Amino-2-{[1-(4-fluoro-phenyl)-cyclobutanecarbonyl]-methyl-amino}-ethyl)-N-pyridin-4-yl-benzamide]
 |  | 0.5 to 5 µM | 0.5 to 5 µM | CN(CC(N)c1ccc(C(=O)Nc2ccncc2)cc1)C(=O)C1(c2ccc(F)cc2)CCCC1 (centres unmarked) [Compound 475, 4-(1-Amino-2-{[1-(4-fluoro-phenyl)-cyclopentanecarbonyl]-methyl-amino}-ethyl)-N-pyridin-4-yl-benzamide]

Source: patent US20100168102A9, “Amide Derivatives as Kinase Inhibitors” (Devgen NV, priority 2005, published 2010)
